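Tested at 5 concentrations; 48 h exposure; 96-well plates; endpoints linearly interpolated, else capped at highest concentration. TGI denotes the concentration required for complete inhibition of growth.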
How the values were obtained:
Assay in all cases: NCI tumour cell line growth inhibition, 48 h
SF-268 CNS = test system: SF-268 CNS
U251 CNS = test system: U251 CNS
SN12C renal = test system: SN12C renal
LXFL 529 NSCLC = test system: LXFL 529 NSCLC
OVCAR-3 ovarian = test system: OVCAR-3 ovarian
NCI-H460 lung = test system: NCI-H460 lung
786-0 renal = test system: 786-0 renal
HCC-2998 colon = test system: HCC-2998 colon
IGROV1 ovarian = test system: IGROV1 ovarian
OVCAR-8 ovarian = test system: OVCAR-8 ovarian
SNB-75 CNS = test system: SNB-75 CNS
K-562 leukemia = test system: K-562 leukemia
UACC-62 melanoma = test system: UACC-62 melanoma
SK-MEL-2 melanoma = test system: SK-MEL-2 melanoma
HCT-116 colon = test system: HCT-116 colon
MOLT-4 leukemia = test system: MOLT-4 leukemia
LOX IMVI melanoma = test system: LOX IMVI melanoma
SK-MEL-5 melanoma = test system: SK-MEL-5 melanoma
M19-MEL melanoma = test system: M19-MEL melanoma
DMS 114 small cell lung = test system: DMS 114 small cell lung
A498 renal = test system: A498 renal
HOP-92 NSCLC = test system: HOP-92 NSCLC
CCRF-CEM leukemia = test system: CCRF-CEM leukemia
NCI-H522 lung = test system: NCI-H522 lung
HL-60(TB) leukemia = test system: HL-60(TB) leukemia
M14 melanoma = test system: M14 melanoma
UO-31 renal = test system: UO-31 renal
MALME-3M melanoma = test system: MALME-3M melanoma
NCI-H226 lung = test system: NCI-H226 lung
DLD-1 colon = test system: DLD-1 colon
OVCAR-4 ovarian = test system: OVCAR-4 ovarian
HOP-62 NSCLC = test system: HOP-62 NSCLC
ACHN renal = test system: ACHN renal
NCI-H23 lung = test system: NCI-H23 lung
TK-10 renal = test system: TK-10 renal
UACC-257 melanoma = test system: UACC-257 melanoma
SF-295 CNS = test system: SF-295 CNS
COLO 205 colon = test system: COLO 205 colon
KM20L2 colon = test system: KM20L2 colon
HCT-15 colon = test system: HCT-15 colon
RPMI-8226 leukemia = test system: RPMI-8226 leukemia
KM12 colon = test system: KM12 colon
A549 NSCLC = test system: A549 NSCLC
SW-620 colon = test system: SW-620 colon
SK-MEL-28 melanoma = test system: SK-MEL-28 melanoma
SNB-19 CNS = test system: SNB-19 CNS
SNB-78 CNS = test system: SNB-78 CNS
HT29 colon = test system: HT29 colon
CAKI-1 renal = test system: CAKI-1 renal
EKVX NSCLC = test system: EKVX NSCLC
SK-OV-3 ovarian = test system: SK-OV-3 ovarian
RXF 393 renal = test system: RXF 393 renal
SF-539 CNS = test system: SF-539 CNS
XF 498 CNS = test system: XF 498 CNS
DMS 273 small cell lung = test system: DMS 273 small cell lung

C=CCc1cc(-c2cc(CC=C)c(O)c(CNCCCl)c2)cc(CNCCCl)c1O
TGI (SF-268 CNS): 60.5 µM | TGI (U251 CNS): 30.7 µM | TGI (SN12C renal): 44.6 µM | TGI (LXFL 529 NSCLC): 29.3 µM | TGI (OVCAR-3 ovarian): 43.9 µM | TGI (NCI-H460 lung): 37 µM | TGI (786-0 renal): > 100 µM | TGI (HCC-2998 colon): 31.4 µM | TGI (IGROV1 ovarian): 51.4 µM | TGI (OVCAR-8 ovarian): 49.4 µM | TGI (SNB-75 CNS): > 100 µM | TGI (K-562 leukemia): 52.1 µM | TGI (UACC-62 melanoma): 28.3 µM | TGI (SK-MEL-2 melanoma): 35.2 µM | TGI (HCT-116 colon): 34.6 µM | TGI (MOLT-4 leukemia): 53.4 µM | TGI (LOX IMVI melanoma): 31.6 µM | TGI (SK-MEL-5 melanoma): 28.6 µM | TGI (M19-MEL melanoma): 32.3 µM | TGI (DMS 114 small cell lung): 42.2 µM | TGI (A498 renal): 52.3 µM | TGI (HOP-92 NSCLC): 31.2 µM | TGI (CCRF-CEM leukemia): 81.8 µM | TGI (NCI-H522 lung): 32.8 µM | TGI (HL-60(TB) leukemia): 44.8 µM | TGI (M14 melanoma): 32.7 µM | TGI (UO-31 renal): 28.6 µM | TGI (MALME-3M melanoma): 39.5 µM | TGI (NCI-H226 lung): 35.4 µM | TGI (DLD-1 colon): 57 µM | TGI (OVCAR-4 ovarian): 56.7 µM | TGI (HOP-62 NSCLC): 33.2 µM | TGI (ACHN renal): 46.2 µM | TGI (NCI-H23 lung): 31.3 µM | TGI (TK-10 renal): 57.5 µM | TGI (UACC-257 melanoma): 32.4 µM | TGI (SF-295 CNS): 33.8 µM | TGI (COLO 205 colon): 32.1 µM | TGI (KM20L2 colon): 33.9 µM | TGI (HCT-15 colon): 31.1 µM | TGI (RPMI-8226 leukemia): 61.9 µM | TGI (KM12 colon): 31.4 µM | TGI (A549 NSCLC): 76.1 µM | TGI (SW-620 colon): 44.3 µM | TGI (SK-MEL-28 melanoma): 32.9 µM | TGI (SNB-19 CNS): > 100 µM | TGI (SNB-78 CNS): > 100 µM | TGI (HT29 colon): 36.5 µM

COc1cccc(N2C(=O)[C@H]3CC(C)c4c([nH]c5ccccc45)[C@H]3C2=O)c1 (stereo partly drawn)
TGI (SF-268 CNS): > 100 µM | TGI (U251 CNS): > 100 µM | TGI (SN12C renal): > 100 µM | TGI (LXFL 529 NSCLC): > 100 µM | TGI (OVCAR-3 ovarian): > 100 µM | TGI (NCI-H460 lung): > 100 µM | TGI (786-0 renal): 50.5 µM | TGI (HCC-2998 colon): > 100 µM | TGI (IGROV1 ovarian): > 100 µM | TGI (OVCAR-8 ovarian): > 100 µM | TGI (CAKI-1 renal): > 100 µM | TGI (SNB-75 CNS): 42.1 µM | TGI (K-562 leukemia): > 100 µM | TGI (EKVX NSCLC): > 100 µM | TGI (UACC-62 melanoma): > 100 µM | TGI (SK-MEL-2 melanoma): > 100 µM | TGI (MOLT-4 leukemia): > 100 µM | TGI (LOX IMVI melanoma): > 100 µM | TGI (SK-OV-3 ovarian): 72.2 µM | TGI (RXF 393 renal): 38.8 µM | TGI (SF-539 CNS): 93.1 µM | TGI (SK-MEL-5 melanoma): > 100 µM | TGI (M19-MEL melanoma): > 100 µM | TGI (A498 renal): > 100 µM | TGI (HOP-92 NSCLC): 80.5 µM | TGI (CCRF-CEM leukemia): > 100 µM | TGI (NCI-H522 lung): > 100 µM | TGI (HL-60(TB) leukemia): > 100 µM | TGI (M14 melanoma): > 100 µM | TGI (UO-31 renal): > 100 µM | TGI (MALME-3M melanoma): > 100 µM | TGI (NCI-H226 lung): > 100 µM | TGI (DLD-1 colon): > 100 µM | TGI (XF 498 CNS): > 100 µM | TGI (HOP-62 NSCLC): 42.5 µM | TGI (NCI-H23 lung): > 100 µM | TGI (TK-10 renal): > 100 µM | TGI (UACC-257 melanoma): > 100 µM | TGI (SF-295 CNS): 67.6 µM | TGI (COLO 205 colon): > 100 µM | TGI (KM20L2 colon): > 100 µM | TGI (DMS 273 small cell lung): > 100 µM | TGI (HCT-15 colon): > 100 µM | TGI (RPMI-8226 leukemia): > 100 µM | TGI (KM12 colon): > 100 µM | TGI (A549 NSCLC): > 100 µM | TGI (SK-MEL-28 melanoma): > 100 µM | TGI (SNB-19 CNS): > 100 µM | TGI (SNB-78 CNS): > 100 µM | TGI (HT29 colon): > 100 µM

— PubChem BioAssay (NCI)
